≈ marks a conversion by molar mass, not a printed value.
Key:
[1] = system: corneal collagen; assay: Papain digest fluorescence of corneal flaps (collagen cross-linking); parameters: species or system Pig; details: for fluorescence (relative to the untreated controls, Fo) recorded at 450 nm: 1% solution in dH2O; for fluorescence of the corneal samples after digestion with papain (excitation 360 nm): 30 mW/cm^2, pulsed 1 s on/1 s off, 8 min, oxygen, vs controls not exposed to UV; for fluorescence of the digested corneas in the area 450 nm: 20 min soak, 30 mW/cm^2, 4 min continuous UVA, vs non-cross-linked control
Description: Corneas were pan-corneally irradiated with a top hat beam (3% root mean square) for 8 minutes (7.2 J total dose) in a cylinder filled with oxygen with 365-nm light source (pulsing 1 second on, 1 second off) (UV LED NCSU033B[T]; Nichia Co., Tokushima, Japan) at the chosen irradiance (30 mW/cm^2) which was measured with a power sensor (model PD-300-UV; Ophir, Inc., Jerusalem, Israel) at the corneal surface. Before the start of irradiation, oxygen's exposure was 2 minutes. Corneal flaps (approximately 200 μm thick) were excised from the eyes with aid of Intralase femtosecond laser (Abbot Medical Optics, Santa Ana, Calif.). The average thickness of the corneal flaps was calculated as a difference between the measurements before and after the excision from the eyes with an ultrasonic Pachymeter (DGH Technology, Exton, Pa.). The flaps were washed with distilled water two times, dried with filter paper, washed with dH2O two times, and then dried in a vacuum until the weight change became less than 10% (Rotary vane vacuum pump RV3 A652-01-903, BOC Edwards, West Sussex, UK). Each flap was digested for 2.5 hours at 65° C. with 2.5 units/ml of papain (from Papaya latex, Sigma) in 1 ml of papain buffer [BBBS (pH 7.0-7.2), 2 mM L-cysteine and 2 mM EDTA]. Papain digests were centrifuged for 5 seconds at 2200×G (Mini centrifuge 05-090-100, Fisher Scientific), diluted 0.5 times with BBBS and fluorescence of the solutions was measured with excitation of λex=360 nm in a QM-40 Spectrofluorometer (Photon Technology Int., London, Ontario, Canada). The fluorescence of the papain buffer was taken into account by measuring fluorescence in the absence of tissue and subtracting this value from the fluorescence of the samples.
This method was used because the non-enzymatic cross-link density in collagens was previously quantified with use of papain digest fluorescence. There is a linear relationship between fluorescence and increasing cross-linking activity.
Corneal flaps were soaked in either distilled water or diluted H2O2 (1%) for 20 minutes. Flaps soaked in H2O2 were either rinsed twice with distilled water or removed from H2O2 and placed in 0.1% FeSO4 solution in distilled water for an additional 20 minute soak followed by a 2× rinse with distilled water. Flaps were dried in a vacuum until the weight change became less than 10% (Rotary vane vacuum pump RV3 A652-01-903, BOC Edwards, West Sussex, UK). Each flap was digested for 2.5 hours at 65° C. with 2.5 units/ml of papain (from Papaya latex, Sigma) in 1 ml of papain buffer [BBBS (pH 7.0-7.2), 2 mM L-cysteine and 2 mM EDTA]. Papain digests were centrifuged for 5 seconds at 2200×G (Mini centrifuge 05-090-100, Fisher Scientific), diluted 0.5 times with BBBS and fluorescence of the solutions was measured with excitation of λex=360 nm in a QM-40 Spectrofluorometer (Photon Technology Int., London, Ontario, Canada). The fluorescence of the papain buffer was taken into account by measuring fluorescence in the absence of tissue and subtracting this value from the fluorescence of the samples.
Pig eyes were shipped overnight on ice from an abattoir (SiouxPreme, Sioux City, Iowa), rinsed in saline. Eyes were cleaned and epithelium was removed. […] If specified, eyes were placed in a beaker with a light oxygen stream for 2 minutes in the incubation chamber prior to irradiation. Corneas were pan-corneally irradiated with a top hat beam (3% root mean square) for the chosen time (4 or 8 minutes) with 365-nm light source (UV LED NCSU033B[T]; Nichia Co., Tokushima, Japan) at the chosen irradiance (30 mW/cm^2, pulsed or non-pulsed) which was measured with a power sensor (model PD-300-UV; Ophir, Inc., Jerusalem, Israel) at the corneal surface. Corneal flaps (approximately 200 μm thick) were excised from the eyes with aid of Intralase femtosecond laser (Abbot Medical Optics, Santa Ana, Calif.).

[2] = system: corneal collagen; assay: Biaxial extensometry (tensiometry) of corneal flaps; parameters: species or system Pig; details: for displacement-force (corneal stiffness): 1% solution in dH2O; for displacement vs. force (corneal stiffening): 30 mW/cm^2, pulsed 1 s on/1 s off, 8 min, oxygen, vs unexposed controls
Description: Pig eyes were shipped overnight on ice from an abattoir (SiouxPreme, Sioux City, Iowa), rinsed in saline. Eyes were cleaned and epithelium was removed. […] If specified, eyes were placed in a beaker with a light oxygen stream for 2 minutes in the incubation chamber prior to irradiation. Corneas were pan-corneally irradiated with a top hat beam (3% root mean square) for the chosen time (4 or 8 minutes) with 365-nm light source (UV LED NCSU033B[T]; Nichia Co., Tokushima, Japan) at the chosen irradiance (30 mW/cm^2, pulsed or non-pulsed) which was measured with a power sensor (model PD-300-UV; Ophir, Inc., Jerusalem, Israel) at the corneal surface. Corneal flaps (approximately 200 μm thick) were excised from the eyes with aid of Intralase femtosecond laser (Abbot Medical Optics, Santa Ana, Calif.). The average thickness of the corneal flaps was calculated as a difference between the measurements before and after the excision from the eyes with an ultrasonic Pachymeter (DGH Technology, Exton, Pa.). The flaps were placed into a biaxial extensometer (CellScale Biotester 5000, Waterloo, ON), using biorake attachments with 5 tines spanning a width of 3 mm. Each sample was stretched at a constant rate of 4 μm/s in saline at 37° C. until sample failure. The flaps were washed with distilled water 2 times, dried with filter paper, washed with dH2O two times, and then dried in a vacuum until the weight change became less than 10% (Rotary vane vacuum pump RV3 A652-01-903, BOC Edwards, West Sussex, UK). Each flap was digested for 2.5 hours at 65° C. with 2.5 units/ml of papain (from Papaya latex, Sigma) in 1 ml of papain buffer [BBBS (pH 7.0-7.2), 2 mM L-cysteine and 2 mM EDTA]. Papain digests were centrifuged for 5 seconds at 2200×G (Mini centrifuge 05-090-100, Fisher Scientific), diluted 0.5 times with 1XBBBS and fluorescence of the solutions was measured with excitation of λex=360 nm in a QM-40 Spectrofluorometer (Photon Technology Int., London, Ontario, Canada). The fluorescence of the papain buffer was taken into account by measuring fluorescence in the absence of tissue and subtracting this value from the fluorescence of the samples.
Pig eyes were shipped overnight on ice from an abattoir (SiouxPreme, Sioux City, Iowa), rinsed in saline. Eyes were cleaned and epithelium was removed. […] Corneas were pan-corneally irradiated with a top hat beam (3% root mean square) for 4 minutes with 365-nm light source (UV LED NCSU033B[T]; Nichia Co., Tokushima, Japan) at irradiance 30 mW/cm^2, which was measured with a power sensor (model PD-300-UV; Ophir, Inc., Jerusalem, Israel) at the corneal surface. Corneal flaps (approximately 200 μm thick) were excised from the eyes with aid of Intralase femtosecond laser (Abbott Medical Optics, Santa Ana, Calif.). The average thickness of the corneal flaps was calculated as a difference between the measurements before and after the excision from the eyes with an ultrasonic Pachymeter (DGH Technology, Exton, Pa.). The flaps were then placed into a biaxial extensometer (CellScale Biotester 5000, Waterloo, ON), using biorake attachments with 5 tines spanning a width of 3 mm. Each sample was stretched at a constant rate of 4 μm/s in saline at 37° C. until sample failure. The flaps were washed with distilled water, dried in a vacuum until the weight change became less than 10% (Rotary vane vacuum pump RV3 A652-01-903, BOC Edwards, West Sussex, UK). Each flap was digested for 2.5 h at 65° C. with 2.5 units/ml of papain (from Papaya latex, Sigma) in 1 ml of papain buffer [BBBS (pH 7.0-7.2), 2 mM L-cysteine and 2 mM EDTA]. Papain digests were centrifuged for 5 seconds at 2200×G (Mini centrifuge 05-090-100, Fisher Scientific), diluted 0.5 times with 1XBBBS and fluorescence of the solutions was measured with excitation of λex=360 nm in a QM-40 Spectrofluorometer (Photon Technology Int., London, Ontario, Canada).

[3] = Solubility of folic acid in phosphate buffer; format: physicochemical; details: pH 7, aqueous buffer, 25° C., pH of the final solution 7.0
From the text: FA is soluble in water with dependence on pH and temperature. […] FA has UV light absorbance at 400 nm and below (the long wave peak at 360 nm as shown in FIG. 16), and fluorescence with maximum around 460 nm (as shown in FIG. 17).

[4] = target: human serum albumin (Homo sapiens, UniProt P02768); details: irradiated in the presence of human serum albumin; cited from earlier work
human serum albumin, sequence (P02768 25-609): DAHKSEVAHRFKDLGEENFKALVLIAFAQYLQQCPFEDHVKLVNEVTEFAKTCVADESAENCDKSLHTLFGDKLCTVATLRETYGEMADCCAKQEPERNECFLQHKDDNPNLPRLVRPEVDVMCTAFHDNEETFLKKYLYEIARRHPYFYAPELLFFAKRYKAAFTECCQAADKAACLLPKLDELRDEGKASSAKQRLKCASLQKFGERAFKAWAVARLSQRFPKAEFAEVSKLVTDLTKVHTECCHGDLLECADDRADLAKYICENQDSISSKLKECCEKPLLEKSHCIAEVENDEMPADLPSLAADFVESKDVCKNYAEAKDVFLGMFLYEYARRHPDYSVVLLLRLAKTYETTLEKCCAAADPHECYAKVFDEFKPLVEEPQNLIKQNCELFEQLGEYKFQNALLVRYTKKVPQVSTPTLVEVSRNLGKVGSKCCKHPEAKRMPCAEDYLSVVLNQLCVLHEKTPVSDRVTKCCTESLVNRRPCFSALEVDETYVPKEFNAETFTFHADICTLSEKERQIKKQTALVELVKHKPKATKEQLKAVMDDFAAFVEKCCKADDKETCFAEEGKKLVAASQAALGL

CC(=O)C(C)=O [2,3-butanedione]
fluorescence (relative to the untreated controls, Fo) recorded at 450 nm ([1]; UV 365 nm, 30 mW, 4 min): increase of the corneal stiffness and fluorescence output | fluorescence (relative to the untreated controls, Fo) recorded at 450 nm ([1]; without UV light): does not cross-link corneal flaps | displacement-force (corneal stiffness) ([2]; UV 365 nm, 30 mW, 4 min): increase of the corneal stiffness | displacement-force (corneal stiffness) ([2]; without UV light): does not cross-link corneal flaps

Nc1nc2ncc(CNc3ccc(C(=O)N[C@@H](CCC(=O)O)C(=O)O)cc3)nc2c(=O)[nH]1 [FA, Folic acid]
fluorescence of the corneal samples after digestion with papain (excitation 360 nm) ([1]; UV 365 nm): fluorescence of the cross-linked collagen samples increases | solubility [3]: 5500 µg/mL (≈ 12.5 mM) | displacement vs. force (corneal stiffening) ([2]; UV 365 nm): significant stiffening

Cc1c(C(=O)NCCO)[n+]([O-])c2ccccc2[n+]1[O-] [Olaquindox, N-(2-hydroxyethyl)-3-methyl-2-quinoxalinecarboxamide 1,4-dioxide]
relative fluorescence recorded at 450 nm ([1]; 0.4% in PBS, UVA 30 mW/cm2, 4 min CW or 8 min pulsed + O2, vs non-irradiated control): acquired fluorescence at 450 nm | biaxial extensiometry (corneal collagen stiffness) ([2]; 0.4% in PBS, UVA 30 mW/cm2, 4 min CW or 8 min pulsed + O2, vs controls): became stiffer | time to complete disappearance on irradiation [4]: ≤ 20 s

Cc1cc2nc3c(=O)[nH]c(=O)nc-3n(C[C@H](O)[C@H](O)[C@H](O)CO)c2cc1C [riboflavin]
fluorescence of the digested corneas in the area 450 nm ([1]; 0.1% in BBBS): elevated fluorescence in the area 450 nm | fluorescence of the corneal samples after digestion with papain (excitation 360 nm) ([1]; UV 365 nm): fluorescence of the cross-linked collagen samples increases | displacement vs. force (corneal stiffening) ([2]; UV 365 nm): significant stiffening | average force vs. displacement of corneal flap (tensiometry) ([2]; vs control group, UVA 30 mW/cm^2, 4 min, CW): higher than the control group

Cc1cc2nc(C(=O)[O-])c(=O)n(C[C@H](O)[C@H](O)[C@H](O)CO)c2cc1C.O.[Na+] [sodium salt of 1,2-Dihydro-6,7-dimethyl-2-keto-1-D-ribityl-3-quinoxalinecarboxylic acid monohydrate]
fluorescence of the digested corneas in the area 450 nm ([1]; 0.1% in BBBS): elevated fluorescence in the area 450 nm | fluorescence of the digested corneal flaps (excitation 360 nm) ([1]; 0.1% in BBBS, de-oxygenated with argon, irradiated 4 min at 30 mW/cm^2 in CO2 atmosphere): higher than the fluorescence of the corneal flaps cross-linked with riboflavin

hydrogen peroxide [H2O2]
fluorescence counts of papain digested corneal flaps ([1]; flaps soaked 20 min in 1% H2O2, with or without a further 20 min in 0.1% Iron(II) (FeSO4), no UV): not when they were exposed to only H2O2
